Counter-ions that a name gives are not always drawn.
biological target: T1, truncated form of recombinant rabbit GSK-3β enzyme (Oryctolagus cuniculus, UniProt G1T8E2); test: Inhibition of Glycogen Synthase Kinase-3β, in vitro assay; format: biochemical; settings: GSK-3β inhibition, 40 μM ATP, CREB-peptide substrate, 30° C. for 1 h
T1 construct: The construct was cloned in pGEX-3X vector; fused on or other part: GST tag at the N-terminus, inferred from the pGEX-3X vector and the glutathione sepharose 4B purification with glutathione elution
Experimental: The in vitro GSK-3β inhibitory activity of compounds of this invention was determined with a truncated form of recombinant rabbit GSK-3β enzyme.
The construct was cloned in pGEX-3X vector according to the procedure described in Wang, Q. M. et al., J. Biol. Chem. 269, 14566-14574 (1994). Ten amino acids at the N-terminus were deleted to obtain constitutively active GSK-3β ((see Murai H. et al., FEBS Lett. 392,153-60, (1996)). GSK-3β was expressed in BL21 DE3 cells. The cells were grown at 37° C. until they reached mid log phase and then induced with isopropyl-beta-(D)-thiogalactopyranoside (final concentration 0.4 mM) at 30° C. for 2 h. The cells were homogenized and the cell extract was loaded on a glutathione sepharose 4B column. GSK-3β was eluted with glutathione buffer (50 mM Tris pH 8 and 10 mM reduced glutathione). The eluate was collected in 3 minute fractions and assayed for GSK-3β content on a 10% SDS PAGE (polyacrylamide gel electrophoresis). Fractions above 20% peak height were pooled, aliquoted, and stored at −80° C. until used.
The GSK-3β […] was performed in 50 μl reactions in a 96 well polypropylene plate, each reaction containing 20 mM magnesium chloride, 40 μM ATP, 2 mM DTT, 88.5 μM biotinylated and phosphorylated CREB-peptide substrate (biotin-[…](PO4)YR-OH, see Wang, Q. M. et al., J. Biol. Chem. 269, 14566-14574 (1994)), [γ-^33P] ATP (1 μCi), and 2 μl of compounds of this invention in DMSO (various concentrations). 15 μl of GSK-3β (various concentrations) was added and the reaction mixture was incubated at 30° C. for 1 h. The reaction was stopped by transferring 25 μl of the reaction mixture to a phosphocellulose plate containing 130 μl of 1.85% phosphoric acid. The free radionucleotides in the membrane were washed off under vacuum with 1.85% phosphoric acid (5 times). After the last wash, the plate was transferred to an adoptor plate and 50 μl of scintillation cocktail (Microscint-20, Packard, cat. #20-133) was added to each well and the amount of radioactivity was counted in a top counter.

T1 sequence (G1T8E2 1-432): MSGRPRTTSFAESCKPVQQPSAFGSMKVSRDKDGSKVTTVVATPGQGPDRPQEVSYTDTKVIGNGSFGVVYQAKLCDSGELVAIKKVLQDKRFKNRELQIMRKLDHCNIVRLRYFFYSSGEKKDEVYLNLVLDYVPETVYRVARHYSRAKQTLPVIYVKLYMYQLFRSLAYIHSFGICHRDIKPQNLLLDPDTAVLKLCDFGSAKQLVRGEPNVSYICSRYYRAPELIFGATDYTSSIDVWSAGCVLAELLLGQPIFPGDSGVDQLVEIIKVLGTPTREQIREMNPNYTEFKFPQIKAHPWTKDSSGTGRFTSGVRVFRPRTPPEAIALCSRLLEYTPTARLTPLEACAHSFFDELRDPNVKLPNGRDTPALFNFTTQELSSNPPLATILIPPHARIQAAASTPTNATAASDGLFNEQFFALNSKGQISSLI

IC50 [nM]	SMILES
29.6	Cn1cc(C2=C(c3cccc(OCCN4CCOCC4)c3)C(=O)NC2=O)c2ccccc21 [II-4, 3-(1-methylindol-3-yl)-4-[3-(2-morpholin-4-ylethyloxy)phenyl]-1H-pyrrole-2,5-dione]
26.4	Cn1cc(C2=C(c3cccc(OCCCN)c3)C(=O)NC2=O)c2ccccc21 [II-2, 3-(1-methylindol-3-yl)-4-[3-(3-aminopropyloxy)phenyl]-1H-pyrrole-2,5-dione]
133	Cn1cc(C2=C(c3ccc(OC[C@@H]4COC(C)(C)O4)cc3)C(=O)NC2=O)c2ccccc21 [IV-1, 3-(1-methylindol-3-yl)-4-[4-((R)-2,2-dimethyl-1,3-dioxolan-4-ylmethyloxy)phenyl]-1H-pyrrole-2,5-dione]
20	Cn1cc(C2=C(c3cccc(OCCN)c3)C(=O)NC2=O)c2ccccc21 [II-1, 3-(1-methylindol-3-yl)-4-[3-(2-aminoethyloxy)phenyl]-1H-pyrrole-2,5-dione]
230	O=C1NC(=O)C(c2c[nH]c3ccccc23)=C1c1cccc(OCCN2CCOCC2)c1 [III-3, 3-(1H-indol-3-yl)-4-[3-(2-morpholin-4-ylethoxy)phenyl]-1H-pyrrole-2,5-dione]
194	Cn1cc(C2=C(c3ccccc3OCC(O)CO)C(=O)NC2=O)c2ccccc21 (centres unmarked) [Compound I-1, 3-(1-methylindol-3-yl)-4-{2-[(-2-hydroxy-2-hydroxymethyl)ethyloxy]-phenyl}-1H-pyrrole-2,5-dione]

system: not given; test: not given; settings: not given

melting point [°C]	SMILES
197.7 to 199	Cn1cc(C2=C(c3cccc(OCCN4CCOCC4)c3)C(=O)NC2=O)c2ccccc21 [II-4, 3-(1-methylindol-3-yl)-4-[3-(2-morpholin-4-ylethyloxy)phenyl]-1H-pyrrole-2,5-dione]
150.2 to 152.6	Cn1cc(C2=C(c3cccc(OCCCO)c3)C(=O)NC2=O)c2ccccc21 [II-20]
201 to 203	Cn1cc(C2=C(c3cccc(NC4COC(C)(C)OC4)c3)C(=O)NC2=O)c2ccccc21 [II-10, 3-(1-methylindol-3-yl)-4-[3-(2,2-dimethyl-1,3-dioxan-5-ylamino)phenyl]-1H-pyrrole-2,5-dione]
220.8 to 221.2	Cn1cc(C2=C(c3ccccc3OCC3COC(C)(C)O3)C(=O)NC2=O)c2ccccc21 (racemic) [Compound I-2, 3-(1-methylindol-3-yl)-4-[2-((RS)-2,2-dimethyl-1,3-dioxolan-4-ylmethyloxy)phenyl]-1H-pyrrole-2,5-dione]
182.4 to 187	Cn1cc(C2=C(c3cccc(OCCN)c3)C(=O)NC2=O)c2ccccc21 (as salt: hydrochloride) [II-1, 3-(1-methylindol-3-yl)-4-[3-(2-aminoethyloxy)phenyl]-1H-pyrrole-2,5-dione]
177.7 to 178	Cn1cc(C2=C(c3cccc(OC[C@H](O)CO)c3)C(=O)NC2=O)c2ccccc21 [II-3, 3-(1-methylindol-3-yl)-4-{3-[((R)-2-hydroxy-2-hydroxymethyl)ethyloxy]phenyl}-1H-pyrrole-2,5-dione]
186.8 to 187.4	Cn1cc(C2=C(c3cccc(OC[C@H]4COC(C)(C)O4)c3)C(=O)NC2=O)c2ccccc21 [II-7, 3-(1-methylindol-3-yl)-4-[3-((S)-2,2-dimethyl-1,3-dioxolan-4-ylmethyloxy)phenyl]-1H-pyrrole-2,5-dione]
220.8 to 221.2	Cn1cc(C2=C(c3cccc(OCC4COC(C)(C)O4)c3)C(=O)NC2=O)c2ccccc21 (stereo in doubt) [II-6, 3-(1-methylindol-3-yl)-4-[3-((R)-2,2-dimethyl-1,3-dioxolan-4-ylmethyloxy)phenyl]-1H-pyrrole-2,5-dione]
118 to 125	O=C1NC(=O)C(c2cn(CCCO)c3ccc(F)cc23)=C1c1cccc(NCC(O)CO)c1 (racemic) [III-6, 3-{3-[(2,3-dihydroxypropyl)amino]phenyl}-4-[5-fluoro-1-(3-hydroxypropyl)-1H-indol-3-yl]-1H-pyrrole-2,5-dione]
58 to 61.5	CC(O)CCNc1ccc(C2=C(c3cn(C)c4ccccc34)C(=O)NC2=O)cc1 (centres unmarked) [IV-4]
170.3 to 170.6	Cn1cc(C2=C(c3cccc(NCCO)c3)C(=O)NC2=O)c2ccccc21 (as salt: hydrochloride) [II-19, 3-(1-methylindol-3-yl)4-[3-(2-hydroxyethylamino)phenyl]-1H-pyrrole-2,5-dione]
203.1 to 205.8	CC(CO)Nc1cccc(C2=C(c3cn(C)c4ccccc34)C(=O)NC2=O)c1 (racemic) [II-22, 3-(1-methylindol-3-yl)-4-[3-(2-hydroxy-1-methylethylamino)phenyl]-1H-pyrrole-2,5-dione]
220.3 to 222.7	Cn1cc(C2=C(c3ccc(OCC(O)CO)cc3)C(=O)NC2=O)c2ccccc21 (stereo in doubt) [IV-6, 3-(1-methylindol-3-yl)-4-{4-[((R)-2-hydroxy-2-hydroxymethyl)ethyloxy]-phenyl}-1H-pyrrole-2,5-dione]
151.2 to 151.7	Cn1cc(C2=C(c3cccc(OCCCO[Si](C)(C)C(C)(C)C)c3)C(=O)NC2=O)c2ccccc21
136 to 141	Cn1cc(C2=C(c3cccc(N4CCC(O)CC4)c3)C(=O)NC2=O)c2ccccc21 [II-29, 3-[3-(4-hydroxypiperidin-1-yl)phenyl]-4-(1-methyl-1H-indol-3-yl)-1H-pyrrole-2,5-dione]
176.9 to 178.1	Cn1cc(C2=C(c3cccc(OCC(O)CO)c3)C(=O)NC2=O)c2ccccc21 (stereo in doubt) [II-5, 3-(1-methylindol-3-yl)-4-{3-[((S)-2-hydroxy-2-hydroxymethyl)ethyloxy]-phenyl]-1H-pyrrole-2,5-dione]
205.3 to 212.6	Cn1cc(C2=C(c3cccc(N4CCOCC4)c3)C(=O)NC2=O)c2ccccc21 (as salt: hydrochloride) [II-15, 3-(1-methylindol-3-yl)-4-(3-morpholin-4-ylphenyl)-1H-pyrrole-2,5-dione hydrochloride]
160 to 163.5	Cn1cc(C2=C(c3cccc(NCC(O)CO)c3)C(=O)NC2=O)c2ccccc21 (racemic) [II-9, 3-(1-methylindol-3-yl)-4-{3-[(2-(RS)-hydroxy-2-hydroxymethyl)ethylamino]phenyl}-1H-pyrrole-2,5-dione]
245 to 247.1	Cn1cc(C2=C(c3ccccc3OCC(O)CO)C(=O)NC2=O)c2ccccc21 (centres unmarked) [Compound I-1, 3-(1-methylindol-3-yl)-4-{2-[(-2-hydroxy-2-hydroxymethyl)ethyloxy]-phenyl}-1H-pyrrole-2,5-dione]
58 to 65	Cn1cc(C2=C(c3cccc(NCCCO[Si](C)(C)C(C)(C)C)c3)C(=O)NC2=O)c2ccccc21
